The values that follow come from patent publication US7482008B1, “Human T cell reactive feline protein (TRFP) isolated from house dust and uses therefor” (Merck Patent GmbH, priority 1989, dated 2009).

Common to all, as to assay type: in vivo, mouse
For experiment [1], the system named is BDF1 mice. Briefly: Tolerization of mice with peptide s.c. or i.v., peptide-specific IL-2 production of lymph node cells (CTLL-2). To be noted: 300 μg in PBS day 0 and 5, intravenously and subcutaneously; challenge 100 μg in CFA. How it is done: Four groups of five BDF1 (C57BL/6J×DBA/2J) mice (females, 6-8 weeks of age), were injected either subcutaneously in a single dorsal site between the forelimbs or intravenously through one of the tail veins. […] The animals were sacrificed by cervical dislocation on day 20 and inguinal and popliteal nodes were removed and placed in rinsing buffer, cold RPMI 1640 containing 1% Fetal Bovine Serum (FBS). The nodes were rinsed with rinsing buffer and forced through a fine stainless steel mesh, using a glass pestal to suspend them in rinsing buffer. The suspended cells were rinsed two times by centrifugation at 1500 rpm for 10 minutes and resuspended with rinsing buffer. An aliquot of suspended cells from each animal was counted on a Coulter Counter Model ZB.
The 0.2 ml cultures were done in triplicate in flat bottom 96 well plates (Costar) at 37° C. and 5% CO2. After 24 hours, […] of the media from each well was placed in separate round bottom 96 well plates (Costar) and was frozen overnight at −20° C. to eliminate carryover of live cells. The supernatants were tested after thawing for their ability to support the growth of CTLL-2, an IL-2 dependent T cell clone (ATCC TIB#214). […] The ^3H-incorporation in each well was counted by a Betaplate Model 1205 scintillation counter. […]

For experiment [2], the system named is mice primed to rch1. Briefly: Duration of peptide inhibitory effects on T cell function in rCh1 primed mice. The settings on record: FIG. 25. As to the method: Mice were injected with recombinant TRFP Chain 1 (rCh1) in Incomplete Freund's Adjuvant. Three months later all the mice were primed to rch1 as judged by their development of significant titers of anti-rch1 antibody.

The subject of experiment [3] is Balb/c mice. As to the kind of experiment: Oral rChain 1, antibody response ELISA, protocol 2. How it is done:
Four groups of five age-matched Balb/c 6- to 10-week-old female mice (The Jackson Laboratory, Bar Harbor, Me.) were fed on days −7, −5 and −2 with 250 μg cleaved, purified, recombinant TRFP Chain 1 (rChain) (Groups 1 and 3) or with PBS (Groups 2 and 4). On day 0, the mice in Groups 1 and 2 were challenged with an intraperitoneal (i.p.) injection of 10 μg rChain 1 in alum, while the mice in Groups 3 and 4 were challenged on day 0 with an i.p. injection of 100 μg rChain 1 in CFA. […]
Subsequent incubations were for 1 hour at 37° C. The wells were washed with PBS containing 0.05% Tween 20 and blocked with 0.5% gelatin in PBS. Sera were diluted in PBS as noted in the individual assay and were incubated in triplicate on the washed plates. After incubation and washing, the bound mouse antibody was detected by incubation with biotinylated goat anti-mouse IgG (Southern Biotechnology Ass.). […] 3,3′,5,5′-Tetramethylbenzidine peroxidase substrate (Kirkegaard & Perry Labs) was used according to directions supplied, and resulting OD (450 nm) values were determined using an ELISA reader (Bio-Tek model 310, Winooski, Vt.). […]
Antigen-bound IgE was detected similarly except using a biotinylated rat monoclonal antibody specific for mouse IgE (Baniyash et al. (1984) Eur. J. Immunol. 14:799-807). […]

Experiment [4] concerns B6CBAF1 mice. Briefly: Tolerization s.c. then challenge with recombinant chain 1 of TRFP, chain 1 specific IL-2 production. The settings on record: 150 μg/dose s.c. days 0 and 5; challenge 100 μg recombinant chain 1 in CFA. How it is done: The mice were injected with 150 μg/dose of either the TRFP chain 1 or each of the peptides (days 0 and 5). The PBS alone and the PBS/peptides were injected in 300 μl/dose. The PBS/chain 1 of the TRFP protein was injected in 100 μl/dose. All tolerizing doses were at a single site under the dorsal skin between the forelimbs. On day 10 all of the animals received a challenge injection of 100 μg recombinant chain 1 of TRFP in 200 μl CFA as described above. On day 20 the animals were sacrificed and draining lymph nodes were removed as described above. The lymph node cells were suspended, rinsed, and cultured as above with or without 150 μg/ml recombinant chain 1 of TRFP. The lymph node cell cultures in this experiment were each 0.1 ml. The supernatants from the cultures were assayed for IL-2 as described above.

With “peptide Y: amino acid residues 29-55 from chain 1 of TRFP (SEQ. ID. NO: 18) (KALPVVLENARILKNCVDAKMTEEDKE)”, the “specific IL-2 secretion of draining lymph node cells” value in experiment [1] is given as “decreased specific IL-2 secretion”. For the same substance, in experiment [2], the “duration of inhibitory effects of subcutaneous peptide injection on T cell function” value is recorded as “up to 56 days”.

For the substance “recombinant chain 1: recombinant TRFP chain 1 expressed in E. coli”, the “IgE binding to rChain 1” value in experiment [3] (92 days after challenge, compared to PBS) is on record as “less IgE binding to rChain 1”. The “IgG response to rChain 1” value in experiment [3] (oral administration, up to 100 days after treatment) is given as “depressed level of IgG response”. Moreover, the “IL-2 production specific for chain 1 of TRFP” value in experiment [4] is given as “effective in decreasing IL-2 production”.
